Some test systems named below: CAKI-1 renal; CCRF-CEM leukemia; HCT-15 colon; MDA-MB-435; NCI-H460 lung; SF-539 CNS; SK-MEL-2 melanoma; MALME-3M melanoma.
Common to all, as to experiment: inhibition of tumour cell growth, NCI panel, 48 h

Results on 18 compounds are retold here after PubChem BioAssay (NCI).

Structures are written as SMILES. Values joined by “and” are separate entries in the source; they are usually repeats but may differ in a detail not shown here. Identical values can stand only once.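 A five-concentration, 48-hour dose response in 96-well plates underlies each endpoint, interpolated linearly between surrounding concentrations. GI50 is the concentration that inhibits growth by half. TGI: total growth inhibition.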

`Cc1cn(CCCCOC(=O)NC(CCCN=C(N)N)C(=O)O)c(=O)[nH]c1=O` (stereo not drawn): the TGI with CAKI-1 renal, with CCRF-CEM leukemia, with HCT-15 colon, in the test on MDA-MB-435, in the test with NCI-H460 lung and in the test with SF-539 CNS was greater than 100 µM each time. The compound also showed a TGI with SK-MEL-2 melanoma greater than 100 µM.

Regarding `CC(=O)OCCCCn1nncc1Cn1ccc(=O)n(Cc2cnnn2CCCCOC(C)=O)c1=O`, the TGI in the test with CAKI-1 renal was greater than 100 µM; in the test on CCRF-CEM leukemia, 2.61 µM; in the test with HCT-15 colon, greater than 100 µM; with MALME-3M melanoma, greater than 100 µM; with MDA-MB-435 it was greater than 100 µM; in the test on SF-539 CNS, greater than 100 µM. The compound also registered a TGI with SK-MEL-2 melanoma greater than 100 µM.

`C1=C2C3=[N+](CCCC3)CC2Cc2sccc21` (stereo not drawn): the TGI with CAKI-1 renal, with CCRF-CEM leukemia, in the test on HCT-15 colon, in the test on MALME-3M melanoma, in the test on MDA-MB-435 and in the test on NCI-H460 lung was greater than 100 µM throughout. In the test on SK-MEL-2 melanoma, the TGI is greater than 100 µM.

For `Cc1ccc(N2C=Nn3c(nc4sc5c(c4c3=O)CCCC5)C2)cc1`, the TGI in the test with CAKI-1 renal, in the test on CCRF-CEM leukemia, in the test on HCT-15 colon, in the test on MALME-3M melanoma, with MDA-MB-435 and in the test with NCI-H460 lung was greater than 100 µM in each case. The compound further displayed a TGI in the test with SK-MEL-2 melanoma greater than 100 µM.

As for `COc1c(C)c(C/C=C(\C)CC/C=C(\C)CC/C=C(\C)CC/C=C(\C)CCC=C(C)C)c(OC)c(OC)c1OC`, the TGI in the test on CAKI-1 renal was greater than 100 µM; in the test with CCRF-CEM leukemia it was 53.8 µM; in the test on HCT-15 colon, greater than 100 µM; in the test with MDA-MB-435, greater than 100 µM; in the test with NCI-H460 lung, 23.2 µM; with SF-539 CNS it was greater than 100 µM. The compound further displayed a TGI in the test on SK-MEL-2 melanoma greater than 100 µM.

Take `COc1ccc2c(c1)C(=O)c1c-2n(CCCN=[N+]=[N-])c(=O)c2cc([N+](=O)[O-])ccc12`: the GI50 in the test with CAKI-1 renal is 0.0018 µM; with CCRF-CEM leukemia, less than 0.001 µM; with MALME-3M melanoma, 0.422 µM; with MDA-MB-435, 0.252 µM and 0.491 µM; in the test with SK-MEL-2 melanoma, 14.5 µM. The TGI in the test with CAKI-1 renal is 0.00531 µM; in the test with CCRF-CEM leukemia, 0.0275 µM and 0.0272 µM; with MALME-3M melanoma it was 9.88 µM; with MDA-MB-435, greater than 100 µM; in the test on NCI-H460 lung, 0.0469 µM; with SK-MEL-2 melanoma, 39.1 µM.

For `COc1ccc2nc(N/N=C/c3ccc(C)s3)cc(C)c2c1`, the TGI was 40.5 µM with CAKI-1 renal; greater than 100 µM with CCRF-CEM leukemia; 32.4 µM in the test with HCT-15 colon; 58.7 µM in the test with MALME-3M melanoma; 60.6 µM in the test with MDA-MB-435; 34.8 µM in the test on SF-539 CNS. The compound also gave a TGI in the test on SK-MEL-2 melanoma of 41.6 µM.

Turning to `O=c1c2ccccc2ncn1COCc1ccccc1`, the TGI in the test on CCRF-CEM leukemia, in the test with HCT-15 colon, with MDA-MB-435, in the test on SF-539 CNS and in the test on SK-MEL-2 melanoma was greater than 100 µM throughout.

For `CC(=O)OC(OC(C)=O)c1c2ccccc2cc2ccccc12`, the TGI in the test with CAKI-1 renal was greater than 100 µM; in the test on CCRF-CEM leukemia it was 18 µM; in the test on HCT-15 colon it was 56 µM; in the test with MDA-MB-435, greater than 100 µM; in the test with NCI-H460 lung, 31.8 µM; with SF-539 CNS, 36.1 µM.

`O=C(CSc1nc2ccc(I)cc2c(=O)n1Cc1ccccc1)NNC(=S)Nc1ccccc1`: the TGI with CAKI-1 renal, in the test on CCRF-CEM leukemia, in the test with HCT-15 colon, with MDA-MB-435, in the test on NCI-H460 lung and in the test on SK-MEL-2 melanoma was greater than 100 µM in each case.

`CCSC1=N/C(=C\c2ccco2)C(Nc2ccc(C)cc2)=N1`: the TGI in the test on CCRF-CEM leukemia, in the test with HCT-15 colon, in the test with MALME-3M melanoma, in the test with MDA-MB-435 and in the test on SK-MEL-2 melanoma was greater than 100 µM each time.

On to `CC1CN=C(N(C(=O)Nc2ccc(Cl)cc2)c2cccc(Cl)c2)S1` (stereo not drawn), for which the TGI with CAKI-1 renal, with CCRF-CEM leukemia, in the test on HCT-15 colon, in the test with MALME-3M melanoma, in the test with NCI-H460 lung and in the test with SF-539 CNS was greater than 100 µM in each case. Besides, the TGI with SK-MEL-2 melanoma worked out at 44.9 µM.

Regarding `CC(C)CC(C#CCCOC(=O)c1ccccc1)OC(=O)c1ccccc1` (stereo not drawn), the TGI with CCRF-CEM leukemia, with HCT-15 colon, in the test on MALME-3M melanoma, with MDA-MB-435, in the test on NCI-H460 lung and in the test with SF-539 CNS was greater than 10 µM each time. In the test on SK-MEL-2 melanoma, the TGI is greater than 10 µM.

As for `CCCC(=O)Nc1cc(/C=C/C(=O)N2CC(CCl)c3ccc([N+](=O)[O-])cc32)n(C)c1` (stereo not drawn), the TGI with CAKI-1 renal is greater than 100 µM; in the test with CCRF-CEM leukemia, 29.4 µM; with HCT-15 colon, greater than 100 µM; with MALME-3M melanoma, greater than 100 µM; with MDA-MB-435, greater than 100 µM; with SF-539 CNS it was greater than 100 µM. Moreover, in the test on SK-MEL-2 melanoma, the TGI is greater than 100 µM.

For the compound `COc1cc(/C=C2\N=C(c3ccccc3)N(c3nc4ccccc4s3)C2=O)cc(OC)c1OC`, the TGI with CAKI-1 renal is greater than 100 µM; in the test on HCT-15 colon, greater than 100 µM; in the test on MDA-MB-435, 84.6 µM; with NCI-H460 lung, greater than 100 µM; in the test on SF-539 CNS, greater than 100 µM; with SK-MEL-2 melanoma it was greater than 100 µM.

`CC1(C)CC[C@]2(C)[C@@H](O)C[C@]3(C)C(=CC[C@@H]4[C@@]5(C)CC[C@H](O)C(C)(C)[C@@H]5CC[C@]43C)[C@@H]2C1`: the TGI in the test with CAKI-1 renal is greater than 100 µM; in the test with CCRF-CEM leukemia, greater than 100 µM; in the test with HCT-15 colon, greater than 100 µM; with MALME-3M melanoma, 86.9 µM; in the test on MDA-MB-435, greater than 100 µM; in the test on NCI-H460 lung it was greater than 100 µM. Moreover, in the test with SK-MEL-2 melanoma, the TGI came to 80.7 µM.

In the case of `COc1nc2c(c(=O)[nH]1)N=C(c1ccccc1)CC(c1ccccc1)N2` (stereo not drawn), the TGI with CAKI-1 renal, with CCRF-CEM leukemia, in the test on MALME-3M melanoma, in the test on MDA-MB-435, in the test with NCI-H460 lung and in the test on SF-539 CNS was greater than 100 µM throughout. Also, in the test on SK-MEL-2 melanoma, the TGI is greater than 100 µM.

For the compound `Cc1c(C)c(S(=O)(=O)N(CCCN)OCCCN)c(C)c2c1OC(C)(C)CC2`, the TGI in the test on CAKI-1 renal is 30.1 µM; in the test on CCRF-CEM leukemia it was 27.6 µM; with HCT-15 colon, 29.3 µM; with MALME-3M melanoma, 27.8 µM; with MDA-MB-435 it was 29.6 µM; in the test on NCI-H460 lung, 30.3 µM. In addition, the TGI in the test on SK-MEL-2 melanoma is 32.1 µM.
